# Laboratory results taken from patent US20260226064A1, “POLYCYCLIC COMPOUND FOR TREATING NEUROLOGICAL DISEASES AND TUMORS” (Shanghai Institute of Organic Chemistry, Chinese Academy of …, priority 2023, published 2026).
# System: acetylated microtubule in HEK293T cells
# Assay: Microtubule-Stabilizing Activity Assay (acetylated microtubule immunoblot, HEK293T, colchicine challenge)
# Assay type: cell-based
# Conditions: 1 h pre-incubation, then colchicine 1 μM 3 h, relative to CNDR-51657 at 500 nM = 1.00; for Microtubule-Stabilizing Activity 50 nM: compound 50 nM; for Microtubule-Stabilizing Activity 500 nM: compound 500 nM
# Procedure: Compound solvent: 100% dimethyl sulfoxide (DMSO). Cell line: HEK293T (ATCC, CRL3216). Culture conditions: Cells were cultured in Dulbecco's Modified Eagle's Medium (DMEM) containing 10% fetal bovine serum and 1% penicillin/streptomycin. Cells were cultured at 37° C. in a Thermo-Fisher incubator with a humidified atmosphere of 5% carbon dioxide.
# One day prior to the experiment, 100,000 cells were seeded at a density of 200,000 cells/ml in a 24-well plate.
# On the day of the experiment, 20 μl of PBS phosphate buffer containing the test compound at experimental concentrations or an equivalent volume of DMSO was added to each well. After incubating at 37° C. for 1 hour, colchicine was added to each well at a final concentration of 1 μM, followed by an additional 3-hour incubation at 37° C. The plate was then placed on ice. The medium in each well was removed, and the cells were washed with ice-cold PBS. After aspirating the PBS, 0.1 mL of ice-cold RIPA lysis buffer (containing 0.5% sodium deoxycholate, 0.1% SDS, 1% NP-40, 5 mM EDTA, pH 8.0) was quickly added. Prior to use, a commercial protease inhibitor cocktail (1:500) and 1 μM deacetylase inhibitor Trichostatin A (Sangon Biotech Co., Ltd.) were added to the cell lysis buffer. The cell lysate were transferred to a 1.5 ml centrifuge tube, sonicated, and centrifuged at 13,000 rpm for 10 minutes. The supernatant was collected, and protein concentration was determined using the BCA assay.
# Based on existing literature (Black, 1989; Kurt, 2011), acetylated microtubule was used as an indicator of microtubule polymerization to assess the microtubule-stabilizing efficacy of the compounds. HEK293T cell lysates were analyzed by SDS-PAGE (7.5% gel) and immunoblotted using acetylated microtubule antibody (1:20,000, Sigma-Aldrich, T7451) and α-microtubule antibody (1:2,000, Proteintech, 11224-1-AP). After incubation with fluorescent dye-conjugated IgG (1:40,000, Licor), the blots were visualized using an Odyssey-Dlx imaging system. Grayscale analysis was performed using ImageJ.
# The compound activity was quantified with the microtubule-stabilizing activity of CNDR-51657 (C5) (Jane, 2016) at 500 nM as 1.00.
SMILES,Microtubule-Stabilizing Activity 50 nM,Microtubule-Stabilizing Activity 500 nM
"CC(C)[C@@H](C)Nc1c(-c2c(F)cc(OC3CC4(CCNCC4)C3)cc2F)c(Cl)nc2ncnn12 [Example 5, (R)-6-(4-((7-Azaspiro[3.5]nonan-2-yl)oxy)-2,6-difluorophenyl)-5-chloro-N-(3-methylbutan-2-yl)-[1,2,4]triazolo[1,5-a]pyrimidin-7-amine]",0.41,0.76
"CC(C)[C@@H](C)Nc1c(-c2c(F)cc(OC3CC4(C3)CN(C)C4)cc2F)c(Cl)nc2ncnn12 [Example 2, (R)-6-(4-((2-methyl-2-azaspiro[3.3]hept-6-yl)oxy)-2,6-difluorophenyl)-5-chloro-N-(3-methylbut-2-yl)-[1,2,4]triazolo[1,5-a]pyrimidin-7-amine]",0.29,0.71
"Cl.Fc1cc(/C=C/[C@@H]2[C@H]3CNC[C@@H]23)cc(F)c1-c1c(Cl)nc2ncnn2c1NCC(F)(F)F [Example 54, 6-(4-((E)-2-((1R,5S,6s)-3-Azabicyclo[3.1.0]hexan-6-yl)vinyl)-2,6-difluorophenyl)-5-chloro-N-(2,2,2-trifluoroethyl)-[1,2,4]triazolo[1,5-a]pyrimidin-7-amine hydrochloride]",1.56,3.12
"CNC1CC2(C1)CC(Oc1cc(F)c(-c3c(Cl)nc4ncnn4c3NCC(F)(F)F)c(F)c1)C2 (stereo not drawn) [Example 15, 5-Chloro-6-(2,6-difluoro-4-((6-(methylamino)spiro[3.3]heptan-2-yl)oxy)phenyl)-N-(2,2,2-trifluoroethyl)-[1,2,4]triazolo[1,5-a]pyrimidin-7-amine]",0.15,1.60
"C[C@H](Nc1c(-c2c(F)cc(OC3CC4(CCN(C)CC4)C3)cc2F)c(Cl)nc2ncnn12)C(F)(F)F [Example 8, (S)-6-(4-((7-Methyl-7-azaspiro[3.5]nonan-2-yl)oxy)-2,6-difluorophenyl)-5-chloro-N-(1,1,1-trifluoropropan-2-yl)-[1,2,4]triazolo[1,5-a]pyrimidin-7-amine]",0.43,0.31
"C[C@@H](Nc1c(-c2c(F)cc(/C=C/[C@@H]3[C@H]4CN(C)C[C@@H]34)cc2F)c(Cl)nc2ncnn12)C1CCC1 [Example 56, 5-Chloro-N—((R)-1-cyclobutylethyl)-6-(2,6-difluoro-4-((E)-2-((1R,5S,6s)-3-methyl-3-azabicyclo[3.1.0]hexan-6-yl)vinyl)phenyl)-[1,2,4]triazolo[1,5-a]pyrimidin-7-amine]",1.47,1.69
"Cc1nc2ncnn2c(N[C@H](C)C(C)C)c1-c1c(F)cc(OCC2[C@H]3CNC[C@@H]23)cc1F (stereo partly drawn) [Example 23, 6-(4-(((1R,5S,6r)-3-Azabicyclo[3.1.0]hex-6-yl)methoxy)-2,6-difluorophenyl)-5-methyl-N—((R)-3-methylbutan-2-yl)-[1,2,4]triazolo[1,5-a]pyrimidin-7-amine]",0.80,0.99
"Fc1cc(OC[C@H]2[C@@H]3CNC[C@@H]32)cc(F)c1-c1c(Cl)nc2ncnn2c1NCC(F)(F)F [Example 33, 6-(4-(((1R,5S,6r)-3-azabicyclo[3.1.0]hexan-6-yl)methoxy)-2,6-difluorophenyl)-5-chloro-N-(2,2,2-trifluoroethyl)-[1,2,4]triazolo[1,5-a]pyrimidin-7-amine]",1.46,1.64
"CC(C)[C@@H](C)Nc1c(-c2c(F)cc(OCC3[C@H]4CNC[C@@H]34)cc2F)c(Cl)nc2ncnn12 (stereo partly drawn) [Example 21, 6-(4-(((1R,5S,6r)-3-Azabicyclo[3.1.0]hexan-6-yl)methoxy)-2,6-difluorophenyl)-5-chloro-N—((R)-3-methylbutan-2-yl)-[1,2,4]triazolo[1,5-a]pyrimidin-7-amine]",1.27,1.60
"CC(C)[C@@H](C)Nc1c(-c2c(F)cc(O[C@H]3C[C@H]4CNC[C@H]4C3)cc2F)c(Cl)nc2ncnn12 [Example 36, 5-Chloro-6-(2,6-difluoro-4-(((3aR,5r,6aS)-octahydrocyclopenta[c]pyrrol-5-yl)oxy)phenyl)-N—((R)-3-methylbutan-2-yl)-[1,2,4]triazolo[1,5-a]pyrimidin-7-amine]",0.47,0.37
"Cl.Fc1cc(C#C[C@@H]2[C@H]3CNC[C@@H]23)cc(F)c1-c1c(Cl)nc2ncnn2c1NCC(F)(F)F [Example 49, 6-(4-(((1R,5S,6s)-3-Azabicyclo[3.1.0]hexan-6-yl)ethynyl)-2,6-difluorophenyl)-5-chloro-N-(2,2,2-trifluoroethyl)-[1,2,4]triazolo[1,5-a]pyrimidin-7-amine hydrochloride]",1.04,1.74
"CNC1CCC2(CC1)CC(Oc1cc(F)c(-c3c(Cl)nc4ncnn4c3N[C@H](C)C(C)C)c(F)c1)C2 (stereo partly drawn) [Example 17, (R)-5-Chloro-6-(2,6-difluoro-4-((7-(methylamino)spiro[3.5]nonan-2-yl)oxy)phenyl)-N-(3-methylbutan-2-yl)-[1,2,4]triazolo[1,5-a]pyrimidin-7-amine]",0.21,0.89
"C[C@H](Nc1c(-c2c(F)cc(O[C@H]3C[C@@H]4CN(C)C[C@@H]4C3)cc2F)c(Cl)nc2ncnn12)C(F)(F)F [Example 43, 5-Chloro-6-(2,6-difluoro-4-(((3aR,5s,6aS)-2-methyloctahydrocyclopenta[c]pyrrol-5-yl)oxy)phenyl)-N—((S)-1,1,1-trifluoropropan-2-yl)-[1,2,4]triazolo[1,5-a]pyrimidin-7-amine]",0.09,2.69
"C[C@H](Nc1c(-c2c(F)cc(OC3CC4(CNC4)C3)cc2F)c(Cl)nc2ncnn12)C(F)(F)F [Example 3, (S)-6-(4-((2-Azaspiro[3.3]heptan-6-yl)oxy)-2,6-difluorophenyl)-5-chloro-N-(1,1,1-trifluoropropan-2-yl)-[1,2,4]triazolo[1,5-a]pyrimidin-7-amine]",0.36,0.49
"C[C@H](Nc1c(-c2c(F)cc(OC[C@H]3[C@H]4CN(C)C[C@@H]34)cc2F)c(Cl)nc2ncnn12)C(F)(F)F [Example 32, 5-Chloro-6-(2,6-difluoro-4-(((1R,5S,6s)-3-methyl-3-azabicyclo[3.1.0]hexan-6-yl)methoxy)phenyl)-N—((S)-1,1,1-trifluoropropan-2-yl)-[1,2,4]triazolo[1,5-a]pyrimidin-7-amine]",0.07,2.51
"C[C@@H](Nc1c(-c2c(F)cc(OCC3[C@H]4CN(C)C[C@@H]34)cc2F)c(Cl)nc2ncnn12)C1CCC1 (stereo partly drawn) [Example 27, 5-Chloro-N—((R)-1-cyclobutylethyl)-6-(2,6-difluoro-4-(((1R,5S,6r)-3-methyl-3-azabicyclo[3.1.0]hexan-6-yl)methoxy)phenyl)-[1,2,4]triazolo[1,5-a]pyrimidin-7-amine]",1.64,1.37
"C[C@@H](Nc1c(-c2c(F)cc(OC3CC4(C3)CC(N(C)C)C4)cc2F)c(Cl)nc2ncnn12)C1CCC1 (stereo partly drawn) [Example 14, (R)-5-Chloro-N-(1-cyclobutylethyl)-6-(4-((6-(dimethylamino)spiro[3.3]heptan-2-yl)oxy)-2,6-difluorophenyl)-[1,2,4]triazolo[1,5-a]pyrimidin-7-amine]",0.23,1.98
"CN1C[C@@H]2C(C#Cc3cc(F)c(-c4c(Cl)nc5ncnn5c4NCC(F)(F)F)c(F)c3)[C@@H]2C1 (stereo partly drawn) [Example 50, 5-Chloro-6-(2,6-difluoro-4-(((1R,5S,6s)-3-methyl-3-azabicyclo[3.1.0]hexan-6-yl)ethynyl)phenyl)-N-(2,2,2-trifluoroethyl)-[1,2,4]triazolo[1,5-a]pyrimidin-7-amine]",2.0,2.78
